In ChEMBL document CHEMBL1201862, “PubChem BioAssay data set” (2004):
Where a name gives a salt, the structure may show the parent alone. The source made the active and inactive calls.

Experiments:
[1] = molecular target: T1, Rac GTPase-activating protein 1 (Homo sapiens, UniProt Q9H0H5); test: MgcRacGAP GTPase-activating activity inhibitors, confirmation, biochemical, ADP Hunter fluorescence, primary and confirmatory (AID 624330); format: functional
T1 sequence (Q9H0H5 whole entry): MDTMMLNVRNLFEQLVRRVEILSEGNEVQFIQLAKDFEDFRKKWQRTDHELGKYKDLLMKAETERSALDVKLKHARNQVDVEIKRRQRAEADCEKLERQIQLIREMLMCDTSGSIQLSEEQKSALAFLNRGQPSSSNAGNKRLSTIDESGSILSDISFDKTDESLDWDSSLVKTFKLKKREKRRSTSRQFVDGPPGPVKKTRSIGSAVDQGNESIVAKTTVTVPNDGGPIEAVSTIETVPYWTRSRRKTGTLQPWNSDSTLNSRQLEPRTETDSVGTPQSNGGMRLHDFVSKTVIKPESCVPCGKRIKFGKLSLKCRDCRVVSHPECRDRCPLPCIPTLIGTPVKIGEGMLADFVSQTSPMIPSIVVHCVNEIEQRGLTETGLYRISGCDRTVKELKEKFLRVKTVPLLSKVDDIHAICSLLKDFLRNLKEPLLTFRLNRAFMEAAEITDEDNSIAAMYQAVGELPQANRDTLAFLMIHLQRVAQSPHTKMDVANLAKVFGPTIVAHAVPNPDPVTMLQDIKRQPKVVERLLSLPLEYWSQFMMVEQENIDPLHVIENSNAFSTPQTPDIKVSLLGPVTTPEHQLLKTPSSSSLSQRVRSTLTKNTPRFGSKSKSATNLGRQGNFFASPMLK

[2] = molecular target: Glutathione-S-transferase (Schistosoma japonicum, UniProt Q26513); test: biotin-GST/anti-GST TR-FRET signal inhibitors, dose response, artefact control for Vif-APOBEC3G degradation inhibitor project, biochemical (AID 1117362); format: functional
Glutathione-S-transferase, sequence (Q26513 whole entry): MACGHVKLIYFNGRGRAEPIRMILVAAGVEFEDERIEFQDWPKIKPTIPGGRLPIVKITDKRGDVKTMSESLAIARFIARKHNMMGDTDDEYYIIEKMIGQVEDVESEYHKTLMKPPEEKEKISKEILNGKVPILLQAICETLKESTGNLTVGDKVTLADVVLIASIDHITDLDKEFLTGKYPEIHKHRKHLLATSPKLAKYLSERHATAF

[3] = molecular target: Protein Tat (Human immunodeficiency virus type 1 group M subtype B (isolate HXB2)(HIV-1), UniProt P04608); format: functional;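 also: tat binding to TAR RNA read out by fluorescence polarization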
Protein Tat, sequence (P04608 whole entry): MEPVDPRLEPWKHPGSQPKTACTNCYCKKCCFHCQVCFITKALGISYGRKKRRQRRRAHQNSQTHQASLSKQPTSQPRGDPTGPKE

[4] = molecular target: Nonstructural protein 1 (Influenza A virus, UniProt Q194T2); format: functional, Influenza A virus (A/California/07/2009(H1N1))
Nonstructural protein 1, sequence (Q194T2 whole entry): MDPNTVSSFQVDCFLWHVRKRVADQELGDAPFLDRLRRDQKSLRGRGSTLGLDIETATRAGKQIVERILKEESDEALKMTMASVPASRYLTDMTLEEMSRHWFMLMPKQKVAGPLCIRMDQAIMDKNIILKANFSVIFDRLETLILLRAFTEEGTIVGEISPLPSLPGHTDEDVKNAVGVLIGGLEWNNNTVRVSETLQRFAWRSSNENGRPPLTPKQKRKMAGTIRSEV

[5] = molecular target: T2, Protein skinhead-1 (Caenorhabditis elegans, UniProt P34707); format: functional
T2 sequence (P34707 whole entry): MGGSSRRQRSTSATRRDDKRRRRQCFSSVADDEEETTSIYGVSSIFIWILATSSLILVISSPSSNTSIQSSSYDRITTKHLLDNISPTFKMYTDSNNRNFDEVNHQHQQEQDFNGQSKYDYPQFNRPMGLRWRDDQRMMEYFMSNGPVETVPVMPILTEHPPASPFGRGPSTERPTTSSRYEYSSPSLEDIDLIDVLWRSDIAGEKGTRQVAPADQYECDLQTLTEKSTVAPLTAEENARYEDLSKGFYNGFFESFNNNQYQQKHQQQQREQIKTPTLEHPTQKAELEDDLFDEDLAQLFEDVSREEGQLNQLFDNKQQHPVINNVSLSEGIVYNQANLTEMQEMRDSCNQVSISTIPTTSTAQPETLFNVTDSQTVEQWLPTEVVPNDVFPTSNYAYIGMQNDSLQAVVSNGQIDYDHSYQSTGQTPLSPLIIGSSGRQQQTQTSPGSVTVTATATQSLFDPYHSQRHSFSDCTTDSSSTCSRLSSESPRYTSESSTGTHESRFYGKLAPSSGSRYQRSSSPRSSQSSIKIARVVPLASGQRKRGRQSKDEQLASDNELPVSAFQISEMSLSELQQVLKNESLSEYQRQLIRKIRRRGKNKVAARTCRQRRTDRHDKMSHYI

[6] = THP-1 cell cytotoxicity, dose response, cytotoxicity control for Vif-APOBEC3G degradation inhibitor project, THP-1 cells (AID 1117359); format: functional; conditions: Human immunodeficiency virus 1, THP-1
[7] = HeLa cell cytotoxicity, dose response, cytotoxicity control for MgcRacGAP inhibitor project (AID 624300); format: functional
[8] = Glucagon-like peptide 1 release potency, NCI-H716 cell line, dose-response, half-maximal inhibitory concentration (AID 1117344); format: functional, cell-based
[9] = half-maximal inhibitory concentration for glucagon-like peptide-1 release, STC-1 cell line, dose-response (AID 1117345); format: functional, cell-based
[10] = Vero cell cytotoxicity, dose response, cytotoxicity control for Vif-APOBEC3G degradation inhibitor project, Vero cells (AID 1117358); format: functional; conditions: Human immunodeficiency virus 1, Vero
[11] = molecular target: Large T antigen (Simian virus 40, UniProt P03070); format: functional, Betapolyomavirus macacae;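 also: Confirmatory-stage PubChem screen for compounds that inhibit SV40 T antigen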
Large T antigen, sequence (P03070 whole entry): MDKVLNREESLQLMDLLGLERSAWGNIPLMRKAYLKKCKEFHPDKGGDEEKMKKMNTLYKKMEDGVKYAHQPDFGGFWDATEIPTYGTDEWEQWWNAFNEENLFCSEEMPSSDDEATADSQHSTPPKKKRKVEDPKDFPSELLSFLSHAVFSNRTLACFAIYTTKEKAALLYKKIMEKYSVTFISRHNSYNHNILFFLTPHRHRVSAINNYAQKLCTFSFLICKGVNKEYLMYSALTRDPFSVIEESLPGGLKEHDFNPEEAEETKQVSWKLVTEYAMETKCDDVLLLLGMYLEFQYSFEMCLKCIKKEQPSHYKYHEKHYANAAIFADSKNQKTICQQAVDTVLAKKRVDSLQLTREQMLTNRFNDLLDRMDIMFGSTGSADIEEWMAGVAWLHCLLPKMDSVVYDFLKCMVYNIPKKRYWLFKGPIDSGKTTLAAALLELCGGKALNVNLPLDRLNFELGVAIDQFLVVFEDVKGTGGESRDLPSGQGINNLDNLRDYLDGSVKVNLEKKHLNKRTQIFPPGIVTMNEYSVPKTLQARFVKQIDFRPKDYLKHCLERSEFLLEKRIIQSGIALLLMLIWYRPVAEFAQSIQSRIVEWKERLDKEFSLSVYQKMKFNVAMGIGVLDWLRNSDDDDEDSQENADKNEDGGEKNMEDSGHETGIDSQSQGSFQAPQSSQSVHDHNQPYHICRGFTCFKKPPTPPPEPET

[12] = molecular target: Beta-galactosidase (Escherichia coli, UniProt Q8VNN2); test: PubChem AID 485352; format: functional
Beta-galactosidase, sequence (Q8VNN2 whole entry): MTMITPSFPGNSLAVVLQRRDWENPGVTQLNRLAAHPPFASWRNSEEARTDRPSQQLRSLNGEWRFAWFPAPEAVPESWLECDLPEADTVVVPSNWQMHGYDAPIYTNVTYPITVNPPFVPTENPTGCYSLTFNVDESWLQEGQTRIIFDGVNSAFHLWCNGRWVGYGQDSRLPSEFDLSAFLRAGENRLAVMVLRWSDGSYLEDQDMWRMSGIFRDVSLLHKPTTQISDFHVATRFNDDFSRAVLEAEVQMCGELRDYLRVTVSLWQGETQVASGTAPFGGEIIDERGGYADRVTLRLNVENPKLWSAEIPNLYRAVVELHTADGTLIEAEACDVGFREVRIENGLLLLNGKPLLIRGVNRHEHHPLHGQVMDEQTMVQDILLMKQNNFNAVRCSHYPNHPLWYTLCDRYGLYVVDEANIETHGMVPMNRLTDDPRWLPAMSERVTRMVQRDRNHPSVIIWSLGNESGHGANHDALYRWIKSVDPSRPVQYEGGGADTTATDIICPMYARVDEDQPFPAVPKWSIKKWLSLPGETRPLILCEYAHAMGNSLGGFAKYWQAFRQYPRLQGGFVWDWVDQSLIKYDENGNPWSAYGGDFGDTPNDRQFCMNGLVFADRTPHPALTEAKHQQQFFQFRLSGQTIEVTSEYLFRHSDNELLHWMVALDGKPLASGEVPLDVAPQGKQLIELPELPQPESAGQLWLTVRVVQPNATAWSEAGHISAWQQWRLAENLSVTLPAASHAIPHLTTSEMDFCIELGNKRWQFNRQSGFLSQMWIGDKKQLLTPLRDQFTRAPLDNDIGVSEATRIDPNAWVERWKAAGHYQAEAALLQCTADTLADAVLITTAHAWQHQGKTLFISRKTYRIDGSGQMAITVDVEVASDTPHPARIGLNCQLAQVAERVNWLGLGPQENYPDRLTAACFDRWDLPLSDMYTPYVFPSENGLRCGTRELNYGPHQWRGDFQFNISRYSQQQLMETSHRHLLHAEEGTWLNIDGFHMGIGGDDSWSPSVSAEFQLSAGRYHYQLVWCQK

[13] = molecular target: Bifunctional protein GlmU (Mycobacterium tuberculosis, UniProt P9WMN3); test: Inhibitors of Mycobacterial Glucosamine-1-phosphate acetyl transferase (GlmU). Secondary screen.; design: species or system Mycobacterium tuberculosis H37Rv
Bifunctional protein GlmU, sequence (P9WMN3 whole entry): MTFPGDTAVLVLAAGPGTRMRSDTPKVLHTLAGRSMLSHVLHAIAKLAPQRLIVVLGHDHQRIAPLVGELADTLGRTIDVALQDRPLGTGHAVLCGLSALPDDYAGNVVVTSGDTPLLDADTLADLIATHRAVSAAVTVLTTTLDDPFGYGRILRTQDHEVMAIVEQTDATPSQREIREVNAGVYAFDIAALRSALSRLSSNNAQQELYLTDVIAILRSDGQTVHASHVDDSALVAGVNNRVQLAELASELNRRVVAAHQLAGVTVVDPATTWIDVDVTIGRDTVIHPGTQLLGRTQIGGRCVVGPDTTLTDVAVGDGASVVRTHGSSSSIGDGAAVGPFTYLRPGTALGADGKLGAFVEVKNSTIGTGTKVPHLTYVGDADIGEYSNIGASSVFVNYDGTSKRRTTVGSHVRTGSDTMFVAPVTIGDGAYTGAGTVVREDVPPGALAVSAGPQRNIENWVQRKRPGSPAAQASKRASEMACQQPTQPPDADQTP

[14] = molecular target: Glucose-6-phosphate 1-dehydrogenase (Homo sapiens, UniProt P11413); test: human G6PD enzyme inhibitors, dose response, selectivity assay for P. falciparum G6PD inhibitor project, biochemical, fluorescence (AID 504792); format: functional
Glucose-6-phosphate 1-dehydrogenase, sequence (P11413 whole entry): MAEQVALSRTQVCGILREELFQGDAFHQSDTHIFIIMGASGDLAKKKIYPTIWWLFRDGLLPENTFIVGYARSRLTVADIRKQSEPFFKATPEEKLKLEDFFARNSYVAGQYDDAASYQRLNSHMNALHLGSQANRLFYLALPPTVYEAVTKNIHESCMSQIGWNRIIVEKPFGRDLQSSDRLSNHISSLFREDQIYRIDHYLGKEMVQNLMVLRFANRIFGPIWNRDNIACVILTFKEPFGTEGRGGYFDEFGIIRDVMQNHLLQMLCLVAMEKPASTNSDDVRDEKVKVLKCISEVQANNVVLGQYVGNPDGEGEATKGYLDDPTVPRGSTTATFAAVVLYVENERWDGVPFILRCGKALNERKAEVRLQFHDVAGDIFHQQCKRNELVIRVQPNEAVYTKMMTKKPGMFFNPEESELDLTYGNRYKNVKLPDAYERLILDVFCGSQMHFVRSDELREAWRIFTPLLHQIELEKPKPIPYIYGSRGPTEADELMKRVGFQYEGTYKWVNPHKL

[15] = C. albicans growth with fluconazole, confirmation, fluorescence, retest (AID 2467); format: functional, cell-based
[16] = growth suppression of PTEN-null colon cells, dose response, cell-based, HCT116 PTEN knockout (AID 1047); format: functional;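 also: HCT116 colon tumor cells with PTEN knocked out; cells exposed to compound for 60 hours before readout; potency for loss of cell viability measured by luminescence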
[17] = growth suppression of beta-catenin-knockout colon cells, dose response, cell-based, HCT116, human colon tumor (AID 1045); format: functional;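 also: HCT116 colon tumor cells with beta catenin knocked out; cells exposed to compound for 60 hours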
[18] = molecular target: T3, Type-1 angiotensin II receptor (Homo sapiens, UniProt P30556); test: AT1 receptor antagonists, dose response, selectivity assay for APJ receptor antagonist project, cell-based, uHTS hits (AID 463214); format: functional;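 also: antagonist potency against angiotensin II stimulated AT1 response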
T3 sequence (P30556 whole entry): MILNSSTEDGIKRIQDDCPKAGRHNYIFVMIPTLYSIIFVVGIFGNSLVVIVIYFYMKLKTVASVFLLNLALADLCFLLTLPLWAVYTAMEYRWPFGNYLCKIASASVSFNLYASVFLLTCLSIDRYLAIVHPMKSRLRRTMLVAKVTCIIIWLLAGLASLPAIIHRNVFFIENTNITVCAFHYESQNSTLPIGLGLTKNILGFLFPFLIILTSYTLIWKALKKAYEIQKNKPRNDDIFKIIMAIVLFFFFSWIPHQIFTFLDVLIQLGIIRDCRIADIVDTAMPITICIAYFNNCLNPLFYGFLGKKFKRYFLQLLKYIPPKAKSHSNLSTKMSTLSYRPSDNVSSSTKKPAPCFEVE

[19] = NIH-3T3 fibroblast cytotoxicity, dose response, cytotoxicity control, cell-based, fluorescence, Alamar Blue, secondary assay (AID 2327); format: functional;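 also: NIH-3T3 mouse fibroblasts cultured with fluconazole at 8 µg/mL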
[20] = tested on: Vero; test: cells; format: functional; conditions: Chlorocebus sabaeus
[21] = molecular target: Heat shock protein HSP 90-alpha (Homo sapiens, UniProt P07900); format: functional, organism-based

SMILES: N=C1C=CC(=C(c2ccc(N)cc2)c2ccc(N)cc2)C=C1 [PARAROSANILINE]
- IC50 [1]: 98 µM (active)
- IC50 [2]: 4.08 µM (active)
- IC50 [3]: > 100 µM (active)
- IC50 [4]: 6.87 µM (active)
- IC50 [5]: 13.4 µM (active)
- CC50 [6]: 7.58 µM (active)
- CC50 [7]: 50.3 µM (active)

SMILES: COc1cc2nc(N3CCN(C(=O)C4COc5ccccc5O4)CC3)nc(N)c2cc1OC (stereo unspecified) [DOXAZOSIN MESYLATE]
- IC50 [8]: > 40 µM (inactive)
- IC50 [9]: 10.7 µM (inactive)

SMILES: O=C(Nc1cccc(C(F)(F)F)c1)c1cccnc1NCCc1ccccc1
- CC50 [10]: > 40 µM (active)

SMILES: CCN(CC)C(=S)SSC(=S)N(CC)CC
- IC50 [11]: 10.7 µM (active)
- EC50 [12]: > 40 µM (inactive)
- IC50 [13]: 85 µM (active)
- IC50 [14]: > 80 µM (inactive)
- EC50 [15]: 2.43 µM (active)
- EC50 [16]: 0.087 µM (active)
- EC50 [17]: 0.091 µM (active)
- IC50 [18]: 6.64 µM (active)
- EC50 [19]: > 160 µM (inconclusive)
- CC50 [20]: > 25 µM (active)
- AC50 [21]: 5.18 µM (active)
